# Several values for one entry are separate records, joined by “and”; a condition that tells them apart may be missing. Equal entries are not always repeated.
# System: BDF1 mice, Adenocarcinoma 755 s.c., tumor weight T/C
# Test: NCI In Vivo Anticancer Drug Screen. Data for tumor model Adenocarcinoma 755 (subcutaneous) in B6D2F1 (BDF1) mice
# Details: endpoint: mean tumor weight, higher = larger tumour
# Method in brief: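 Transplantable tumor implanted; mice dosed with compound or vehicle; survival or tumor size recorded; ratio of treated to vehicle control reported.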
# [1] = dose: 15.0 mg/kg/injection, schedule: Q01DX011 (ip), vehicle: saline
structure (smiles),measurement,setting,value
Nc1ccn(C2OC(CO)C(O)C2O)c(=O)n1 (stereo not drawn),T/C,[1],36 % of control
same,T/C,"dose: 27.0 mg/kg/injection, schedule: Q01DX011 (ip), vehicle: saline",14 % of control
same,T/C,"dose: 30.0 mg/kg/injection, schedule: Q01DX011 (ip), vehicle: saline",36 % of control
same,T/C,"dose: 40.0 mg/kg/injection, schedule: Q01DX011 (ip), vehicle: saline",7 % of control
same,T/C,"dose: 60.0 mg/kg/injection, schedule: Q## X024 (ip), vehicle: saline",15 % of control
same,T/C,"dose: 120.0 mg/kg/injection, schedule: Q## X024 (ip), vehicle: saline",8 % of control
O=c1[nH]cc(Br)c(=S)[nH]1,T/C,"dose: 15.0 mg/kg/injection, schedule: Q01DX011 (ip), vehicle: methylcellulose (MC)",64 % of control
same,T/C,"dose: 31.0 mg/kg/injection, schedule: Q01DX011 (ip), vehicle: methylcellulose (MC)",86 % of control
same,T/C,"dose: 62.0 mg/kg/injection, schedule: Q01DX011 (ip), vehicle: methylcellulose (MC)",80 % of control
same,T/C,"dose: 125.0 mg/kg/injection, schedule: Q01DX011 (ip), vehicle: methylcellulose (MC)",119 % of control
same,T/C,"dose: 250.0 mg/kg/injection, schedule: Q01DX011 (ip), vehicle: methylcellulose (MC)",109 % of control
COC1=C(N)C(=O)c2nc(-c3nc(C(=O)O)c(C)c(-c4ccc(OC)c(OC)c4O)c3N)ccc2C1=O,T/C,"dose: 0.02 mg/kg/injection, schedule: Q01DX011 (ip), vehicle: water",72 % of control
same,T/C,"dose: 0.04 mg/kg/injection, schedule: Q01DX011 (ip), vehicle: water",47 % of control
same,T/C,"dose: 0.08 mg/kg/injection, schedule: Q01DX011 (ip), vehicle: water",55 % of control
same,T/C,"dose: 0.16 mg/kg/injection, schedule: Q01DX011 (ip), vehicle: water",4 % of control
same,T/C,"dose: 0.25 mg/kg/injection, schedule: Q01DX006 (ip), vehicle: water",41 % of control
same,T/C,"dose: 0.5 mg/kg/injection, schedule: Q01DX006 (ip), vehicle: water",10 % of control
same,T/C,"dose: 50.0 micrograms/kg/injection, schedule: Q01DX011 (ip), vehicle: water",36 % of control
same,T/C,"dose: 75.0 micrograms/kg/injection, schedule: Q01DX011 (ip), vehicle: water",30 % of control
Cc1ccc2c(c1)Sc1ccc3ccccc3c1N2,T/C,"dose: 12.5 mg/kg/injection, schedule: Q01DX011 (ip), vehicle: carboxymethylcellulose (CMC)",57 % of control
same,T/C,[1],94 % of control
same,T/C,"dose: 22.0 mg/kg/injection, schedule: Q01DX011 (ip), vehicle: saline",42 % of control
same,T/C,"dose: 25.0 mg/kg/injection, schedule: Q01DX011 (ip), vehicle: carboxymethylcellulose (CMC)",27 % of control
same,T/C,"dose: 33.0 mg/kg/injection, schedule: Q01DX011 (ip), vehicle: saline",36 % of control
same,T/C,"dose: 50.0 mg/kg/injection, schedule: Q01DX011 (ip), vehicle: carboxymethylcellulose (CMC)",26 % of control and 42 % of control
same,T/C,"dose: 50.0 mg/kg/injection, schedule: Q01DX011 (ip), vehicle: saline",26 % of control and 51 % of control
same,T/C,"dose: 62.5 mg/kg/injection, schedule: Q01DX011 (ip), vehicle: carboxymethylcellulose (CMC)",58 % of control
same,T/C,"dose: 75.0 mg/kg/injection, schedule: Q01DX011 (ip), vehicle: carboxymethylcellulose (CMC)",37 % of control
same,T/C,"dose: 75.0 mg/kg/injection, schedule: Q01DX011 (ip), vehicle: saline",28 % of control
same,T/C,"dose: 112.0 mg/kg/injection, schedule: Q01DX011 (ip), vehicle: carboxymethylcellulose (CMC)",43 % of control
same,T/C,"dose: 112.0 mg/kg/injection, schedule: Q01DX011 (ip), vehicle: saline",14 % of control
same,T/C,"dose: 168.0 mg/kg/injection, schedule: Q01DX011 (ip), vehicle: carboxymethylcellulose (CMC)",18 % of control and 22 % of control
same,T/C,"dose: 168.0 mg/kg/injection, schedule: Q01DX011 (ip), vehicle: saline",14 % of control
same,T/C,"dose: 335.0 mg/kg/injection, schedule: Q01DX011 (ip), vehicle: carboxymethylcellulose (CMC)",10 % of control
O=C(O)c1[nH]c(=O)[nH]c(=O)c1F,T/C,"dose: 1.5 mg/kg/injection, schedule: Q01DX011 (ip), vehicle: other",53 % of control
same,T/C,"dose: 3.0 mg/kg/injection, schedule: Q01DX011 (ip), vehicle: other",79 % of control
same,T/C,"dose: 6.0 mg/kg/injection, schedule: Q01DX011 (ip), vehicle: other",37 % of control
same,T/C,"dose: 12.0 mg/kg/injection, schedule: Q01DX011 (ip), vehicle: other",10 % of control
